Results reported in patent US20250230129A1, “POLYAMIDE COMPOUNDS, METHOD FOR PREPARING SAME, AND MEDICAL USE THEREOF” (priority 2022, published 2025).
Read-outs that look alike come from different tables or passages of the source. Square brackets hold non-standard residues; d marks the D form. Peptide text beside a SMILES is read from it. * marks the point of attachment. Piperidin1yl(4-NH2,4-COOH) = NC1(C(=O)O)CCN(*)CC1; dPhLac = O=C(O)[C@H](O)Cc1ccccc1; X4 = COC(=O)NC1CCN(*)CC1

Experiments:
δ receptor = δ receptor (Homo sapiens (Human), UniProt P41143); test: Competitive delta receptor binding assay (3H-DADLE)
μ receptor = μ receptor (Homo sapiens (Human), UniProt P35372); test: μ receptor affinity assay (3H-DAMGO); assay type: binding
κ receptor = κ receptor (Homo sapiens (Human), UniProt P41145); test: Competitive Kappa receptor binding assay (3H-U69593)
[1] = target: κ-opioid receptor (Kappa) (Homo sapiens (Human), UniProt P41145); test: In vitro functional assay, HTRF cAMP-Gi in CHO-K1-OPRK1 cells; assay type: cell-based
[2] = PK and blood-brain barrier permeability in mice; assay type: in vivo; settings: male ICR mice, intravenous 1 mg/kg
Procedure: The compounds of the present disclosure were investigated for pharmacokinetic characteristics and blood-brain barrier permeability in mice.
Healthy male ICR mice were randomly grouped, 6 animals per group. For each test compound, 3 groups of animals were used. The first group of animals was used for collecting blood and brain 5 min after the administration, and the second group of animals and the third group of animals were used for cross blood collection at subsequent time points; each test compound was intravenously administered (1 mg/kg) to corresponding groups of mice, and blood sampling via submaxillary veins of the mice was carried out at different time points. Drug contents in plasma and brain tissues at different time points were measured by an LC-MS/MS method, the brain-to-blood ratio B/P was calculated by using EXCEL software, and pharmacokinetic parameters were calculated by using DAS3.0 software.

[3] = CHO-K1-delta membranes, 3H-DADLE 4 nM, read-out: δ receptor Ki
[4] = CHO-K1-μ membranes, 3H-DAMGO 2 nM, read-out: μ receptor Ki
[5] = CHO-K1-OPRK1 cells, cAMP, 1 μM Forskolin, read-out: In vitro agonistic effects on k-opioid receptors EC50
[6] = CHO-K1-Kappa membranes, 3H-U69593 2 nM, read-out: κ receptor Ki
[7] = read-out: In vitro agonistic effects on k-opioid receptors EC50

Compound	Ki (δ receptor) [nM]	Ki (μ receptor) [nM]	Ki (κ receptor) [nM]	EC50 [1] [nM]	also measured
CC(C)C[C@@H](NC(=O)[C@@H](Cc1ccccc1)NC(=O)[C@H](O)Cc1ccccc1)C(=O)N[C@H](CCCCN)C(=O)N1CCC(N)(C(=O)O)CC1 [Compound 3] (H-[dPhLac][dF][dL][dK]-{Piperidin1yl(4-NH2,4-COOH)})	> 1000	> 1000	3.31		
CC(=O)N1CCN(C(=O)[C@@H](CCCCN)NC(=O)[C@@H](CC(C)C)NC(=O)[C@@H](Cc2ccccc2)NC(=O)N(CCN)Cc2ccccc2)CC1 [Compound 47]	> 1000	> 1000	0.49	0.24	
CNCCN(Cc1ccccc1)C(=O)N[C@H](Cc1ccccc1)C(=O)N[C@H](CC(C)C)C(=O)C[C@H](CCCCN)C(=O)N1CCC(N)(C(=O)O)CC1 [Compound 28]					Ki (δ receptor; read-out: δ receptor Ki): > 1000 nM; Ki (μ receptor; read-out: μ receptor Ki): > 1000 nM; Ki (κ receptor; read-out: κ receptor Ki): 3.31 nM
CNS(=O)(=O)NC1CCN(C(=O)[C@@H](CCCCN)NC(=O)[C@@H](CC(C)C)NC(=O)[C@@H](Cc2ccccc2)NC(=O)N(CCN)Cc2ccccc2)CC1 [Compound 26]					Ki (δ receptor; [3]): > 1000 nM; Ki (μ receptor; [4]): > 1000 nM; EC50 [1, 5]: 0.25 nM; Ki (κ receptor; [6]): 0.31 nM
COC(=O)N=S1(=O)CCN(C(=O)[C@@H](CCCCN)NC(=O)[C@@H](CC(C)C)NC(=O)[C@@H](Cc2ccccc2)NC(=O)[C@H](N)Cc2ccccc2)CC1 [Compound 4B]	> 1000	> 1000	1.88	0.65	
CC(C)C[C@@H](NC(=O)[C@@H](Cc1ccccc1)NC(=O)N(CCN)Cc1cccnc1)C(=O)C[C@H](CCCCN)C(=O)N1CCC(N)(C(=O)O)CC1 [Compound 18]					Ki (δ receptor; read-out: δ receptor Ki): > 1000 nM; Ki (μ receptor; read-out: μ receptor Ki): > 1000 nM; EC50 [1, 7]: 0.18 nM; Ki (κ receptor; read-out: κ receptor Ki): 0.21 nM
(2R)-2-[(2R)-2-{[(2-amino-1-phenylethyl)(methyl)carbamoyl)amino}-3-phenylpropionylamino]-N-[(2R)-6-amino-1-{4-[(methylcarbamoyl)amino]piperidin-1-yl}-1-oxohexyl-2-yl]-4-methylpentanamide [Compound 8]					Ki (δ receptor; read-out: δ receptor Ki): > 1000 nM; Ki (μ receptor; read-out: μ receptor Ki): > 1000 nM; EC50 [1, 7]: 0.9 nM; Ki (κ receptor; read-out: κ receptor Ki): 0.09 nM
CC(C)C[C@@H](NC(=O)[C@@H](Cc1ccccc1)NC(=O)N(C)C(CN)c1ccccc1)C(=O)C[C@H](CCCCN)C(=O)N1CCC(N)(C(=O)OC(C)C)CC1 (stereo partly drawn) [Compound 15]					Ki (δ receptor; read-out: δ receptor Ki): > 1000 nM; Ki (μ receptor; read-out: μ receptor Ki): > 1000 nM; EC50 [1, 7]: 0.63 nM; Ki (κ receptor; read-out: κ receptor Ki): 0.83 nM
CC(C)C[C@@H](NC(=O)[C@@H](Cc1ccccc1)NC(=O)N(CCN)Cc1ccccc1)C(=O)N[C@H](CCCCN)C(=O)N1CCC(NC(=O)OC2CCOCC2)CC1 [Compound 24]	> 1000	> 1000	0.36	0.27	
CC(C)C[C@@H](NC(=O)[C@@H](Cc1ccccc1)NC(=O)N(CCN)Cc1ccccc1)C(=O)N[C@H](CCCCN)C(=O)N1CCC2(CC1)OC(=O)Nc1ncccc12 [Compound 22]					Ki (δ receptor; [3]): > 1000 nM; Ki (μ receptor; [4]): > 1000 nM; EC50 [1, 5]: 0.36 nM; Ki (κ receptor; [6]): 0.35 nM
CC(C)C[C@@H](NC(=O)[C@@H](Cc1ccccc1)NC(=O)N(C)C(CN)c1ccccc1)C(=O)N[C@H](CCCCN)C(=O)N1CCOCC1 (stereo partly drawn) [Compound 37]	> 1000	> 1000	0.41	0.39	
CC(C)C[C@@H](NC(=O)[C@@H](Cc1ccccc1)NC(=O)N(C)C(CN)c1ccccc1)C(=O)N[C@H](CCCCN)C(=O)N1CCC2(CC1)CNC(=O)c1ncccc12 (stereo partly drawn) [Compound 32]	> 1000	> 1000	0.58	0.65	
COC(=O)N1CCN(C(=O)[C@@H](CCCCN)NC(=O)[C@@H](CC(C)C)NC(=O)[C@@H](Cc2ccccc2)NC(=O)N(CCN)Cc2ccccc2)CC1 [Compound 46]	> 1000	> 1000	0.29	0.22	
CC(C)C[C@@H](NC(=O)[C@@H](Cc1ccccc1)NC(=O)N(C)C(CN)c1ccccc1)C(=O)N[C@H](CCCCN)C(=O)N1CCNCC1 (stereo partly drawn) [Compound 38]	> 1000	> 1000	0.17	0.54	
CC(C)C[C@@H](NC(=O)[C@@H](Cc1ccccc1)NC(=O)[C@H](N)Cc1ccccc1)C(=O)N[C@H](CCCCN)C(=O)N1CCC(N)(C(=O)O)CC1 [CR845, D-Phe-D-Phe-D-Leu-D-Lys-[ω(4-aminopiperidine-4-carboxylic acid)]-OH, reference compound]					B/P (brain-to-blood ratio) ([2]; blood and brain 5 min after administration): 0.015; AUC(0-inf) ([2]; mouse, plasma): 653 ng·h/mL; Vd ([2]; mouse, plasma): 0.6 L/kg; clearance ([2]; mouse, plasma): 27 mL/min/kg; half-life ([2]; mouse, plasma, read-out: t½ (converted)): 15.6 min; Cmax ([2]; mouse, plasma): 1620 ng/mL
CC(C)C[C@@H](NC(=O)[C@@H](Cc1ccccc1)NC(=O)N(CCN)Cc1ccccc1)C(=O)N[C@H](CCCCN)C(=O)N1CCC(C#N)CC1 [Compound 35]	> 1000	> 1000	0.18	0.17	
CC(C)C[C@@H](NC(=O)[C@@H](Cc1ccccc1)NC(=O)N(CCN)Cc1ccccc1)C(=O)N[C@H](CCCCN)C(=O)N1CCC(F)(C(=O)O)CC1 [Compound 34]	> 1000	> 1000	0.6	0.71	
COC(=O)C1(N)CCN(C(=O)[C@@H](CCCCN)NC(=O)[C@@H](CC(C)C)NC(=O)[C@@H](Cc2ccccc2)NC(=O)N(C)C(CN)c2ccccc2)CC1 (stereo partly drawn) [Compound 14]	> 1000	> 1000	1.1	8.2	
CC(C)C[C@@H](NC(=O)[C@@H](Cc1ccccc1)NC(=O)N(CCN)Cc1cncnc1)C(=O)C[C@H](CCCCN)C(=O)N1CCC(N)(C(=O)O)CC1 [Compound 19]					Ki (δ receptor; read-out: δ receptor Ki): > 1000 nM; Ki (μ receptor; read-out: μ receptor Ki): > 1000 nM; EC50 [1, 7]: 0.87 nM; Ki (κ receptor; read-out: κ receptor Ki): 0.9 nM
CC(C)C[C@@H](NC(=O)[C@@H](Cc1ccccc1)NC(=O)N(CCN)CC1CC1)C(=O)N[C@H](CCCCN)C(=O)N1CCC(N)(C(=O)O)CC1 [Compound 48]	> 1000	> 1000	3.79	12	
COC(=O)NC1CCN(C(=O)[C@@H](C)NC(=O)[C@@H](CC(C)C)NC(=O)[C@@H](Cc2ccccc2)NC(=O)[C@H](N)Cc2ccccc2)CC1 [Compound 12A] (H-[dF][dF][dL][dA]-X4)	> 1000	> 1000	0.34	0.07	
CC(=O)N(CCCN)C1CCN(C(=O)[C@@H](C)CC(=O)[C@@H](CC(C)C)NC(=O)[C@H](CC(=O)N(CCN)Cc2ccccc2)Cc2ccccc2)CC1 [Compound 44]					Ki (δ receptor; read-out: δ receptor Ki): > 1000 nM; Ki (μ receptor; read-out: μ receptor Ki): > 1000 nM; EC50 [1, 7]: 0.09 nM; Ki (κ receptor; read-out: κ receptor Ki): 0.55 nM
COC(=O)NC1CCN(C(=O)[C@@H](C)NC(=O)[C@@H](CC(C)C)NC(=O)[C@@H](Cc2ccccc2)NC(=O)N(CCN)Cc2ccccc2)CC1 [Compound 42]	> 1000	> 1000	0.47	0.46	
CC(C)C[C@@H](NC(=O)[C@@H](Cc1ccccc1)NC(=O)N(CCN)Cc1ccccc1)C(=O)N[C@H](CCCCN)C(=O)N1CCOCC1 [Compound 39]	> 1000	> 1000	0.27	0.35	
CC(C)C[C@@H](NC(=O)[C@@H](Cc1ccccc1)NC(=O)C[C@H](N)c1ccccc1)C(=O)N[C@H](CCCCN)C(=O)N1CCC(N)(C(=O)O)CC1 [Compound 4-100, 4-amino-1-[(2R)-6-amino-2-[(2R)-2-[(2R)-2-[(3S)-3-amino-3-phenylpropionylamino]-3-phenylpropionylamino]-4-methylpentanoylamino]hexanoyl]piperidine-4-carboxylic acid]	> 1000	> 1000	59.9		
